Counter-ions that a name gives are not always drawn. Like-named read-outs stand apart in the source and are kept apart here.
Assays:
Type in all cases: biochemical
recombinant PRL-3 = molecular target: T1, recombinant PRL-3 (Homo sapiens, UniProt O75365); experiment: In vitro phosphatase assay (DiFMUP hydrolysis), PRL-3; also: test concentration or dose not given here
T1 construct: 6xHis (N, cleaved yes); made in house; host or cells: E. coli One Shot BL21 Star

recombinant PRL-1 = molecular target: T2, recombinant PRL-1 (Homo sapiens, UniProt Q93096); experiment: In vitro phosphatase assay (DiFMUP hydrolysis), PRL-1; also: test concentration or dose not given here
T2 construct: 6xHis (N, cleaved yes); made in house; host or cells: E. coli One Shot BL21 Star
T2 sequence (Q93096 1-173): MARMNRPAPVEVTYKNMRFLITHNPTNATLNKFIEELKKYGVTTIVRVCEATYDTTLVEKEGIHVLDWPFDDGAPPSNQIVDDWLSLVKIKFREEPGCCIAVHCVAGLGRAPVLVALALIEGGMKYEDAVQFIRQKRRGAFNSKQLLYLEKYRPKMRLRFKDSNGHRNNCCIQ

recombinant PRL-2 = molecular target: T3, recombinant PRL-2 (Homo sapiens, UniProt Q12974); experiment: In vitro phosphatase assay (DiFMUP hydrolysis), PRL-2;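 also: PRL-2 activity read as DiFMUP hydrolysis after 20 min at room temperature with drug, enzyme first pre-reduced at 4 °C for 20 min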
T3 construct: 6xHis (N, cleaved yes); made in house; host or cells: E. coli One Shot BL21 Star
T3 sequence (Q12974 1-167): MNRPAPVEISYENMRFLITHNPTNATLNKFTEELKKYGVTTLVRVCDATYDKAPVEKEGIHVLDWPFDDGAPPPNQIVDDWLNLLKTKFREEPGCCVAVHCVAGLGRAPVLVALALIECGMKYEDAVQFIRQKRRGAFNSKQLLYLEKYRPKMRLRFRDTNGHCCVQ

[1] = FDA-approved drug screen, compared to DMSO

T1 sequence (O75365 whole entry): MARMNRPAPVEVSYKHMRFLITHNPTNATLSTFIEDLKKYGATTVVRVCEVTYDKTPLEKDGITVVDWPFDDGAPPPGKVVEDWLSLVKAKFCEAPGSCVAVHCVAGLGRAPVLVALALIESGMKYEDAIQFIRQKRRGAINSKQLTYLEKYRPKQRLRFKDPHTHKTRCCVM

SMILES	% Phosphatase Activity (compared to DMSO) PRL-3 (recombinant PRL-3; [1]) [%]	% Phosphatase Activity (compared to DMSO) PRL-1 (recombinant PRL-1; [1]) [%]	% Phosphatase Activity (compared to DMSO) PRL-2 (recombinant PRL-2; [1]) [%]	% Phosphatase Activity (compared to DMSO) PRL-3 (recombinant PRL-3) [%]	% Phosphatase Activity (compared to DMSO) PRL-1 (recombinant PRL-1) [%]	% Phosphatase Activity (compared to DMSO) PRL-2 (recombinant PRL-2) [%]
CC(C)(O/N=C(\C(=O)N[C@@H]1C(=O)N2C(C(=O)[O-])=C(C[n+]3ccccc3)CS[C@H]12)c1csc(N)n1)C(=O)O [Ceftazidime Pentahydrate]	103	100	106			
CO/N=C(\C(=O)N[C@@H]1C(=O)N2C(C(=O)O)=C(CSC(=O)c3ccco3)CS[C@H]12)c1csc(N)n1.Cl [Ceftiofur HCl]	84	107	104			
CO/N=C(/C(=O)N[C@@H]1C(=O)N2C(C(=O)[O-])=C(CSc3nc(=O)c([O-])nn3C)CS[C@H]12)c1csc(N)n1.O.O.O.[Na+].[Na+] [Ceftriaxone Sodium Trihydrate]	108	102	115			
CO/N=C(\C(=O)N[C@@H]1C(=O)N2C(C(=O)O)=C(COC(N)=O)CS[C@H]12)c1ccco1 [Cefuroxime sodium]	82	96	96			
Cc1ccc(-c2cc(C(F)(F)F)nn2-c2ccc(S(N)(=O)=O)cc2)cc1 [Celecoxib]	71	92	81			
CC1=C(C(=O)O)N2C(=O)[C@@H](NC(=O)[C@H](N)c3ccccc3)[C@H]2SC1 [Cephalexin]	98	98	81			
CC(=O)OCC1=C(C(=O)O)N2C(=O)[C@@H](NC(=O)Cc3cccs3)[C@H]2SC1 [Cephalothin]	82	97	91			
CCS(=O)(=O)N1CCN(c2ccc(Nc3ncc(C(N)=O)c(NC4CC4)n3)cc2)CC1 [Cerdulatinib (PRT062070, PRT2070)]	95	95	82			
Cl.Cl.O=C(O)COCCN1CCN(C(c2ccccc2)c2ccc(Cl)cc2)CC1 (stereo not drawn) [Cetirizine DiHCl]				84	92	89
CCCCCCCCCCCCCCCC[N+](C)(C)C.[Br-] [Cetrimonium Bromide (CTAB)]	92	97	103			
C[C@H](CCC(=O)O)[C@H]1CC[C@H]2[C@@H]3[C@H](O)C[C@@H]4C[C@H](O)CC[C@]4(C)[C@H]3CC[C@]12C [Chenodeoxycholic Acid]	115	87	102			
O=C(N[C@H](CO)[C@H](O)c1ccc([N+](=O)[O-])cc1)C(Cl)Cl [Chloramphenicol]	83	96	80			
[H]/N=C(\N/C(=N/[H])NCCCCCCNC(=N)NC(=N)Nc1ccc(Cl)cc1)Nc1ccc(Cl)cc1 [Chlorhexidine HCl]	118	97	112			
CC(=O)O[C@]1(C(C)=O)CC[C@H]2[C@@H]3C=C(Cl)C4=CC(=O)CC[C@]4(C)[C@H]3CC[C@@]21C [Chlormadinone acetate]	81	85	76			
CN1C(=O)CCS(=O)(=O)C1c1ccc(Cl)cc1 (stereo not drawn) [Chlormezanone]	91	81	127			
O=C(O)CCCc1ccc(N(CCCl)CCCl)cc1 [Chloroambucil]	77	98	103			
Cc1cc(O)ccc1Cl [Chlorocresol]	77	89	101			
NS(=O)(=O)c1cc2c(cc1Cl)N=CNS2(=O)=O [Chlorothiazide]	76	105	80			
COc1ccc(C(Cl)=C(c2ccc(OC)cc2)c2ccc(OC)cc2)cc1 [Chlorotrianisene]	92	103	110			

SMILES	% Phosphatase Activity (compared to DMSO) PRL-3 (recombinant PRL-3; [1]) [%]	% Phosphatase Activity (compared to DMSO) PRL-1 (recombinant PRL-1; [1]) [%]	% Phosphatase Activity (compared to DMSO) PRL-2 (recombinant PRL-2; [1]) [%]	% Phosphatase Activity (compared to DMSO) PRL-3 (recombinant PRL-3) [%]	% Phosphatase Activity (compared to DMSO) PRL-1 (recombinant PRL-1) [%]	% Phosphatase Activity (compared to DMSO) PRL-2 (recombinant PRL-2) [%]
Oc1c(Cl)cc(Cl)c2cccnc12 [Chloroxine]	86	90	111			
Cc1cc(O)cc(C)c1Cl [Chloroxylenol]	92	93	112			
CCCNC(=O)NS(=O)(=O)c1ccc(Cl)cc1 [Chlorpropamide]	80	98	105			
CN(C)CC/C=C1/c2ccccc2Sc2ccc(Cl)cc21 [Chlorprothixene]	93	98	107			
Cc1ccc2c(Cl)cc(Cl)c(O)c2n1 [Chlorquinaldol]	71	88	102			
CN(C)[C@@H]1C(O)=C(C(N)=O)C(=O)[C@@]2(O)C(O)=C3C(=O)c4c(O)ccc(Cl)c4[C@@](C)(O)[C@H]3C[C@@H]12 [Chlortetracycline HCl]	77	106	95			
C[N+](C)(C)CCO.[Cl-] [Choline Chloride]				75	99	106
O=C(O)c1cc(=O)c2ccccc2o1 [Chromocarb]	85	95	102			
CC(C)C(=O)OCC(=O)[C@@]12O[C@H](C3CCCCC3)O[C@@H]1C[C@H]1[C@@H]3CCC4=CC(=O)C=C[C@]4(C)[C@H]3[C@@H](O)C[C@@]12C [Ciclesonide]	88	100	108			
Cc1cc(C2CCCCC2)n(O)c(=O)c1.NCCO [Ciclopirox ethanolamine]	83	106	109			
CCOC(=O)[C@H](CCc1ccccc1)N[C@H]1CCCN2CCC[C@@H](C(=O)O)N2C1=O [Cilazapril Monohydrate]	73	91	111			
CC(C)[C@H]1C(=O)N[C@@H](CCCN=C(N)N)C(=O)NCC(=O)N[C@@H](CC(=O)O)C(=O)N[C@H](Cc2ccccc2)C(=O)N1C [Cilengitide]	96	100	91			
COCCOC(=O)C1=C(C)NC(C)=C(C(=O)OC/C=C/c2ccccc2)C1c1cccc([N+](=O)[O-])c1 (stereo not drawn) [Cilnidipine]	68	95	95			
O=C1CCc2cc(OCCCCc3nnnn3C3CCCCC3)ccc2N1 [Cilostazol]	69	88	83			
O=C(O)c1cc(-c2ccccc2)nc2ccccc12 [Cinchophen]	79	86	101			
COc1cc(/C=C/C(=O)N2CCN(CC(=O)N3CCCC3)CC2)cc(OC)c1OC.O=C(O)/C=C\C(=O)O [Cinepazide maleate]	113	112	134			
CC(C)(Oc1ccc(C2CC2(Cl)Cl)cc1)C(=O)O (stereo not drawn) [Ciprofibrate]	88	95	91			
COc1ccc(C[C@@H]2c3cc(OC)c(OC)cc3CC[N@+]2(C)CCC(=O)OCCCCCOC(=O)CC[N@@+]2(C)CCc3cc(OC)c(OC)cc3[C@H]2Cc2ccc(OC)c(OC)c2)cc1OC [Cisatracurium Besylate]	79	99	103			
CC(=O)NC1CCSC1=O (stereo not drawn) [Citiolone]	93	114	106			

— article PMC8119466, “A screen of FDA-approved drugs identifies inhibitors of protein tyrosine phosphatase 4A3 (PTP4A3 or PRL-3)” (Scientific Reports, 2021)
